Patent publication EP2431387A1, “A raft deficient yeast expression system for the production of recombinant membrane proteins” (Centre National de la Recherche Scientifique (C.N.R.S), priority 2010, dated 2012)
Read-outs that look alike come from different tables or passages of the source. Each block holds one molecule with its values, some of them ahead of it.

Assays:
[1] = biological target: T1, MTR1A (Homo sapiens, UniProt P48039)
Experimental: (§1) For saturation binding assays, increasing concentrations of radioactive ligands ranging from 1 to 30 nM were added to 10 µg of proteins diluted in binding buffer (30 mM HEPES, pH 7.7, 0.15 M NaCl and 0.1% BSA). […] Non-specific binding was determined by the addition of 10 µM « cold » ligands using spiperone, prazozine, yohimbine and melatonin for DRD2, ADRA1, ADR2B and MTR1A, respectively. After 1-h incubation at RT, the reaction was terminated by rapid filtration of the samples through GF/B filters presoaked in 1 % polyethylenimine. The filters were washed 3 times with ice-cold buffer (Tris-HCI 50 mM, pH 7.4), and the radioactivity was measured by liquid-scintillation counting. The equilibrium dissociation constant, KD and the maximal number of binding sites, Bmax for radioligands were determined. The data were expressed as the mean ± standard error (SE) for at least three independant experiments performed in triplicate. Data were fitted through non-linear regression analysis with the one-site saturation binding model using the Prism 4 program of GraphPad.

[2] = biological target: T1, MTR1A; remark: listed apart in the source
Experimental: as §1
(§2) Saturation binding experiments were performed on CHAPS/CHS solubilized receptors the same way than described in Example 4 in order to test receptor activity and stability (FIG.5).

[3] = biological target: T2, ADRA1A (Homo sapiens, UniProt P35348)
T2 sequence (P35348 whole entry): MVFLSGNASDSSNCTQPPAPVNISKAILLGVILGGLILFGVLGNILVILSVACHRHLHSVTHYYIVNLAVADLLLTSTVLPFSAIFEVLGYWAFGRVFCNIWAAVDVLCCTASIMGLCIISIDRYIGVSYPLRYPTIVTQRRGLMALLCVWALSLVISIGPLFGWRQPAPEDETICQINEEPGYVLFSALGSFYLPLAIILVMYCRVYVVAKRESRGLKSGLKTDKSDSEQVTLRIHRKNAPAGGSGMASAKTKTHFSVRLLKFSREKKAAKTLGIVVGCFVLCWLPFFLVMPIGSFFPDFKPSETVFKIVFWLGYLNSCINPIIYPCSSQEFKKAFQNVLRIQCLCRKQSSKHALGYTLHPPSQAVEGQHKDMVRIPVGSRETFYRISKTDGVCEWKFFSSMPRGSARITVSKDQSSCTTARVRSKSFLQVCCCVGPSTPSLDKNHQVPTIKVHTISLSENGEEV
Experimental: as §1

[4] = biological target: T2, ADRA1A; conditions: ADRA1A solubilized (CHAPS/CHS) from membranes of erg6 cells
Experimental: as §1, §2

[5] = biological target: T3, DRD2 (Homo sapiens, UniProt P14416); assay: Saturation radioligand binding assay on CHAPS/CHS solubilized receptors; conditions: DRD2 solubilized (CHAPS/CHS) from membranes of erg6 cells
T3 sequence (P14416 whole entry): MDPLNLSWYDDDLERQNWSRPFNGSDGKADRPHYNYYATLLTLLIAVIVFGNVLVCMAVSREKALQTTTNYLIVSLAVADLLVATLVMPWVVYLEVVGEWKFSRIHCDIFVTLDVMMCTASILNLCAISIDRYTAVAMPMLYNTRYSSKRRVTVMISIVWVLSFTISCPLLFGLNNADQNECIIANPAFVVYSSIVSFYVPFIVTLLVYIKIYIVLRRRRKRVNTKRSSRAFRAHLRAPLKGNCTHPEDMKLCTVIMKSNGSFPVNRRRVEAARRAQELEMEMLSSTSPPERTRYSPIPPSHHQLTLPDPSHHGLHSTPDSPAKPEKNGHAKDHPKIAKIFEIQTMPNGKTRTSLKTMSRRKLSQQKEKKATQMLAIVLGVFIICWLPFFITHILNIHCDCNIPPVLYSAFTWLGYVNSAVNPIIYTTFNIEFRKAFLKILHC
Experimental: as §1, §2

[6] = biological target: T3, DRD2; assay: Saturation radioligand binding assay on crude membranes of P. pastoris cells; conditions: DRD2 expressed in membranes of erg6 cells
Experimental: as §1

T1 sequence (P48039 whole entry): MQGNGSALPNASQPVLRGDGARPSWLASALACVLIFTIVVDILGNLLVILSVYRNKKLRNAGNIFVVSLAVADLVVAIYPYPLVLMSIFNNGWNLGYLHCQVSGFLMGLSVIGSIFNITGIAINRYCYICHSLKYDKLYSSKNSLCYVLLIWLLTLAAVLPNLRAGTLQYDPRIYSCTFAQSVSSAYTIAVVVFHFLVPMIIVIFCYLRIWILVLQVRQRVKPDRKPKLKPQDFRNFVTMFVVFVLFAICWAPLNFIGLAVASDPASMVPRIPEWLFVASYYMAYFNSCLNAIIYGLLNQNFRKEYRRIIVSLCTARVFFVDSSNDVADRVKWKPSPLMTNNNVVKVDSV

SMILES: COc1ccc2[nH]cc(CCNC(C)=O)c2c1 [[3H]-Melatonin]
Bmax ([1]; MTR1A expressed in membranes of WT cells): 4.86 ± 0.38 pmol/mg
Bmax ([1]; MTR1A expressed in membranes of erg6 cells): 1.35 ± 0.30 pmol/mg
Bmax ([2]; MTR1A solubilized (CHAPS/CHS) from membranes of WT cells): 2.91 ± 0.29 pmol/mg
Bmax ([2]; MTR1A solubilized (CHAPS/CHS) from membranes of erg6 cells): 5.13 ± 0.32 pmol/mg

Bmax ([3]; ADRA1A expressed in membranes of WT cells): 15.72 ± 2.09 pmol/mg
Bmax ([3]; ADRA1A expressed in membranes of erg6 cells): 35.74 ± 1.11 pmol/mg
Bmax [4]: 11.34 ± 0.71 pmol/mg
SMILES: COc1cc2nc(N3CCN(C(=O)c4ccco4)CC3)nc(N)c2cc1OC [[3H]-Prazozine]

SMILES: O=C(CCCN1CCC2(CC1)C(=O)NCN2c1ccccc1)c1ccc(F)cc1 [[3H]-Spiperone]
Bmax [5]: 42.79 ± 4.71 pmol/mg
Bmax [6]: 62.20 ± 16.42 pmol/mg
